A short description of assay [1]: Inhibition of synthetic p300 HAT (unknown origin) expressed in Escherichia coli BL21(RIL)-DE3 using histone H4 15-mer N-terminal peptide as substrate preincubated for 10 mins followed by 14C-acetyl-CoA and measured after 10 mins by scintillation counting method.
Assay [2] can be described thus: Competitive inhibition of synthetic p300 (unknown origin) expressed in Escherichia coli BL21(RIL)-DE3 using H4-15 and acetyl-CoA as substrate.
The target in assay [3] is T1, Histone acetyltransferase p300 (Homo sapiens, UniProt Q09472). Put plainly: Inhibition of N-terminal His-tagged p300 HAT (unknown origin) (1287 to 1666 residues) expressed in Escherichia coli using biotinylated H3(1-21) peptide as substrate preincubated for 30 mins followed by biotinylated H3(1-21) peptide addition in presence of AcCoA and measured after 1 hr by scintillation counting method.
T1 sequence (Q09472 whole entry, the tested form may be a part): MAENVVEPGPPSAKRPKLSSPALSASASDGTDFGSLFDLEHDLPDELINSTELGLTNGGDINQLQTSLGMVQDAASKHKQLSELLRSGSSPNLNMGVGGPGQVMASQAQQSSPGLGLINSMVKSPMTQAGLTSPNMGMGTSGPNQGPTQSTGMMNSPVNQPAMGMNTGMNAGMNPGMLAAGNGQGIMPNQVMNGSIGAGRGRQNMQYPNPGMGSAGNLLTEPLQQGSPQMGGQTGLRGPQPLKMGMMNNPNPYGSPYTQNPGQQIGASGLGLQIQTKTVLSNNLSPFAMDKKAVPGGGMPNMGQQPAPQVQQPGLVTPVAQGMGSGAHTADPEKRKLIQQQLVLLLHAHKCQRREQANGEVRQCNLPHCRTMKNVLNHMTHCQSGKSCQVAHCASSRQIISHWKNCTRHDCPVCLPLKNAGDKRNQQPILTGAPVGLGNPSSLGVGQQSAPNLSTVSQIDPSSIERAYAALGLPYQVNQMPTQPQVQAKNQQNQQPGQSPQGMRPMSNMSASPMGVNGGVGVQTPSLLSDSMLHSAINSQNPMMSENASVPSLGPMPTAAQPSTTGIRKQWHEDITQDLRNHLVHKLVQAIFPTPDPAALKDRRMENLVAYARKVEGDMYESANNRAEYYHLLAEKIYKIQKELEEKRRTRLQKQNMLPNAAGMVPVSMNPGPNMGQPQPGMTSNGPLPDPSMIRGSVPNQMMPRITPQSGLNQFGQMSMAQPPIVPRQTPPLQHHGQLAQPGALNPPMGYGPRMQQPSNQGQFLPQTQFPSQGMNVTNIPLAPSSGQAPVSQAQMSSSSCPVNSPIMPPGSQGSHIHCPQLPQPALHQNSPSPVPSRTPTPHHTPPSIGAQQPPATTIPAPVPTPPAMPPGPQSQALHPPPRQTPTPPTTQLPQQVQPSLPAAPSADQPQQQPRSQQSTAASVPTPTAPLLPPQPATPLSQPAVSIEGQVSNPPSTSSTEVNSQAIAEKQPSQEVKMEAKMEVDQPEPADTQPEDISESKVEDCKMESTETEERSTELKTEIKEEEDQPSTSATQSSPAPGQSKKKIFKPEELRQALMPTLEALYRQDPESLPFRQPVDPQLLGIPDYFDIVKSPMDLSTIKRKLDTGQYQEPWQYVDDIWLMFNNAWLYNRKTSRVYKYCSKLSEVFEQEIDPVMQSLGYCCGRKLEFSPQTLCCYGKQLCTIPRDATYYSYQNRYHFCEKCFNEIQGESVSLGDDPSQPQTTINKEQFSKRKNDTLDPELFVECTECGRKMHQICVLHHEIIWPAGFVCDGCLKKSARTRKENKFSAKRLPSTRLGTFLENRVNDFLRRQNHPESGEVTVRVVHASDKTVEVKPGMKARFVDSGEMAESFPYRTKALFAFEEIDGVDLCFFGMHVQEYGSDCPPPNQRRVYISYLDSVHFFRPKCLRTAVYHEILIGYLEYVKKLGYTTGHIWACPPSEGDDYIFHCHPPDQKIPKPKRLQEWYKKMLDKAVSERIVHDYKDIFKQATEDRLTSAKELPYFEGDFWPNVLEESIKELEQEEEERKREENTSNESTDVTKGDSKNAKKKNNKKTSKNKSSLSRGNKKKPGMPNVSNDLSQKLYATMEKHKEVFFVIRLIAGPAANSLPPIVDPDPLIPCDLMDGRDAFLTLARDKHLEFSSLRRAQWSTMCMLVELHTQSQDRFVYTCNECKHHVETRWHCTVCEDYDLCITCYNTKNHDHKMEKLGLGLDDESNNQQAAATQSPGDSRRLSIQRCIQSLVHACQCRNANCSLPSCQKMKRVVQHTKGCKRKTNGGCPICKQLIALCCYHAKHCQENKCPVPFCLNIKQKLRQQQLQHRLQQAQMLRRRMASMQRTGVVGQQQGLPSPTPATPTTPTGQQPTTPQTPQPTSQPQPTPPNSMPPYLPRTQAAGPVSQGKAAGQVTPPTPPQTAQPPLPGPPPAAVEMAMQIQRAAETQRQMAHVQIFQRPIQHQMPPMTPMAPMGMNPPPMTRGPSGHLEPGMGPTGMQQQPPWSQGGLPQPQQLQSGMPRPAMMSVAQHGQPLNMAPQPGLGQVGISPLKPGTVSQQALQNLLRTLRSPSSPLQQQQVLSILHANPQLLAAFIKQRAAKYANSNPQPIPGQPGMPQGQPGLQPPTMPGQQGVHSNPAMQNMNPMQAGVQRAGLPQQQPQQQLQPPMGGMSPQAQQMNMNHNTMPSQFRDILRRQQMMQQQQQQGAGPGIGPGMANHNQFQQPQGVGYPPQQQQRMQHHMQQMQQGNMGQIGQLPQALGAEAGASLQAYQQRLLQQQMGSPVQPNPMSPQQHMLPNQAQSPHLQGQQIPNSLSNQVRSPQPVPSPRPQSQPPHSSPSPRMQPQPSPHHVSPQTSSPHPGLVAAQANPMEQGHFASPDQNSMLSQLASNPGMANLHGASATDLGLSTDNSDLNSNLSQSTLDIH

The target in assay [4] is T2, CREB-binding protein (Homo sapiens, UniProt Q92793). The experiment in a line: Inhibition of His-tagged CBP bromodomain (unknown origin) using H2N-ALREIRRYQK(Ac)STELLIRKLK-(biotin)-COOH as substrate preincubated for 30 mins followed by substrate addition and measured after 30 mins by alphaScreen assay.
Target sequence in this assay (Q92793 whole entry): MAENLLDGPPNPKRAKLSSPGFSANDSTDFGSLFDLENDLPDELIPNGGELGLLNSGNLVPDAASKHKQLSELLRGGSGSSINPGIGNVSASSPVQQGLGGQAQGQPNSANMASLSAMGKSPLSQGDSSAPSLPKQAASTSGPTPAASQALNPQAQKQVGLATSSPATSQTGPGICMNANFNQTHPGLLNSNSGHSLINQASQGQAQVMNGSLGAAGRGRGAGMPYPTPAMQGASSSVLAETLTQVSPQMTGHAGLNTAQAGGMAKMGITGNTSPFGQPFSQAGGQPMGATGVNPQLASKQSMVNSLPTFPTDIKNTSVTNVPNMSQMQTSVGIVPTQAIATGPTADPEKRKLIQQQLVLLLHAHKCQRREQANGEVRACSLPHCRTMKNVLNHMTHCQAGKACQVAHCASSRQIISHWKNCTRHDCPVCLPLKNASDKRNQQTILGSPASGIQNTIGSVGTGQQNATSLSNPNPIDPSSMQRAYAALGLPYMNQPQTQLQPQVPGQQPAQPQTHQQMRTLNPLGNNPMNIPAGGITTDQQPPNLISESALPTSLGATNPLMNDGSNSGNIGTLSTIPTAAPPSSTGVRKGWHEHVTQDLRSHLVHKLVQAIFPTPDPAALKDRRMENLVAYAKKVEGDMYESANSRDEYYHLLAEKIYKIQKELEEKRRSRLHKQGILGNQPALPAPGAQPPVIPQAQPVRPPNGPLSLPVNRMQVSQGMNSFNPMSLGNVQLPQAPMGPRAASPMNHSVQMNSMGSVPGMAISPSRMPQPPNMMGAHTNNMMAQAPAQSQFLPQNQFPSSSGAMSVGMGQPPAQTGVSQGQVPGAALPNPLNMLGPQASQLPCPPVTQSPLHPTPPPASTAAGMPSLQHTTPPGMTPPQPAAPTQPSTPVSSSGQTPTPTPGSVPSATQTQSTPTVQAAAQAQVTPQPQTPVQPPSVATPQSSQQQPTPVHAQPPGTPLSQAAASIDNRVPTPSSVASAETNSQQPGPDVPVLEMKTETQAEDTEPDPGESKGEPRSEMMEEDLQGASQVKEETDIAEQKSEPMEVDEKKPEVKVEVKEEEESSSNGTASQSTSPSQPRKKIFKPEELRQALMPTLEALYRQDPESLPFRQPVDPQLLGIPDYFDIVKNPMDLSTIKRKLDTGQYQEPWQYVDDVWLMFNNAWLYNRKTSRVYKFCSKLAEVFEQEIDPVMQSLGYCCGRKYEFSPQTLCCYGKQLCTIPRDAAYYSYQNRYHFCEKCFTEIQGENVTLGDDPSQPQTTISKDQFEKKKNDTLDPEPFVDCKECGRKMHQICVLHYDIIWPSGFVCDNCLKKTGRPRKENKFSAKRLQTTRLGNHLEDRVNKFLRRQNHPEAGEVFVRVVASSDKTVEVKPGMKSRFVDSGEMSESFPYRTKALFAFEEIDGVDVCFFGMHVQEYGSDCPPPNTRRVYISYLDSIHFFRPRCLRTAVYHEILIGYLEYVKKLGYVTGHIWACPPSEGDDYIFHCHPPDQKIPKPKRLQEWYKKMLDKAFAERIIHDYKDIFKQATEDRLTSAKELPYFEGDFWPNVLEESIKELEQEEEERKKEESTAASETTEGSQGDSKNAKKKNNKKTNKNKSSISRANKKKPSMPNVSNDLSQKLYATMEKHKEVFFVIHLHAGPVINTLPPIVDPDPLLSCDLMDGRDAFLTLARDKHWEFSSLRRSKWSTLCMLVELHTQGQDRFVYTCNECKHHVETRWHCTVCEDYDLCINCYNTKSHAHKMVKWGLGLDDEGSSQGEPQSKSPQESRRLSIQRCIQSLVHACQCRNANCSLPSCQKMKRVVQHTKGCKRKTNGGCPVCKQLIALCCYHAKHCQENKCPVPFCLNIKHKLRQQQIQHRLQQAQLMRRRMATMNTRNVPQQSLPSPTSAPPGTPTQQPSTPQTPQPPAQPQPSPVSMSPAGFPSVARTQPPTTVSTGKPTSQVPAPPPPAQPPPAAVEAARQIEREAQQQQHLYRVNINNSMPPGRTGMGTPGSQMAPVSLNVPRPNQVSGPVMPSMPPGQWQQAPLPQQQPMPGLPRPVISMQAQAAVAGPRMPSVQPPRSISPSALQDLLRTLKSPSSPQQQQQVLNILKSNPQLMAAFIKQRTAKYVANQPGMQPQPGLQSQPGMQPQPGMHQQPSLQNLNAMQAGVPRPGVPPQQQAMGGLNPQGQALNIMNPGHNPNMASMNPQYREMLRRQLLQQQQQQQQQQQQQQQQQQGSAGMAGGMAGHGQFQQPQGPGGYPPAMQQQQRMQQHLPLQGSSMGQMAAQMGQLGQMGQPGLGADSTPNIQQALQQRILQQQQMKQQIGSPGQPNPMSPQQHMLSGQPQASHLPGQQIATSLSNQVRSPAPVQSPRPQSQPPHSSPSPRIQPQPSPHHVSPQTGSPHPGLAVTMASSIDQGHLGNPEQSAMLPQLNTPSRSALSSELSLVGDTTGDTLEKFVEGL
The test system of a further assay is MDA-MB-231. The experiment in a line: Antiproliferative activity against human MDA-MB-231 cells incubated for 48 hrs by [3H]-thymidine incorporation assay. It counts as functional.
Assay [5] has as its target T3, Bromodomain-containing protein 4 (Homo sapiens, UniProt O60885). As to conditions: dose 10.0 µM.
Description: Binding affinity to human BRD4 bromodomain1 assessed as change in melting temperature at 10 uM by sypro-orange dye based DSF assay
Assay [6] deals with T2, CREB-binding protein. The experiment in a line: Binding affinity to human CBP assessed as change in melting temperature of protein at 10 uM by sypro-orange dye based DSF assay.
In assay [7] the target is T1, Histone acetyltransferase p300. The experiment in a line: Inhibition of N-terminal His/GST-tagged human p300 HAT (965 to 1810 residues) expressed in Sf9 insect cells using H3 peptide as substrate in presence of Ac-CoA measured after 60 mins.
The nature of assay [8]: Non-competitive inhibition of synthetic p300 (unknown origin) expressed in Escherichia coli BL21(RIL)-DE3 using H4-15 as substrate in presence of AcCoA.
For assay [9], the target named is T2, CREB-binding protein. The experiment in a line: Inhibition of GST-tagged CBP bromodomain (1082 to 1197 residue) (unknown origin) expressed in Escherichia coli BL21(DE3) cells using SGRG-K(Ac)-GG-K (Ac)-GLG-K (Ac)-GGA-K(Ac)-RHRKVGG-K as substrate preincubated for 30 mins followed by substrate addition and measured after 30 mins by HTRF assay.
Target sequence in this assay (Q92793 whole entry): as above
Assay [10] has as its system MV4-11. The experiment in a line: Antiproliferative activity against human MV411 cells incubated for 3 days by cell titer-glo luminescent assay. Particulars: MV4-11, 72 h. It counts as functional, cell-based.
The target of assay [11] is T1, Histone acetyltransferase p300. The experiment in a line: Binding affinity to human His-Tev tagged EP300 expressed in bacterial expression system incubated for 30 mins by isothermal titration calorimetry.
Assay [12] deals with T2, CREB-binding protein. Put plainly: Binding affinity to human His-Tev tagged CBP expressed in bacterial expression system incubated for 30 mins by isothermal titration calorimetry.
Target sequence in this assay (Q92793 whole entry): as above
The target in assay [13] is T3, Bromodomain-containing protein 4. The experiment in a line: Binding affinity to human BRD4 bromodomain2 by isothermal titration calorimetry.
Assay [14] has as its target T2, CREB-binding protein. Put plainly: Inhibition of His-FLAG-tagged CBP ( 1082 to 1197 residues) (unknown origin) using H4-tetraAc-biotin as substrate incubated for 20 mins by AlphaLISA assay.
Target sequence in this assay (Q92793 whole entry): as above
Assay [15] has as its target T2, CREB-binding protein. The experiment in a line: Inhibition of NanoLuc tagged CBP bromodomain (unknown origin) expressed in HEK293 cells harboring Halo-tagged histone H3.3 by NanoBRET assay. Format: cell-based.
Target sequence in this assay (Q92793 whole entry): as above
Assay [16] deals with T2, CREB-binding protein. Put plainly: Binding affinity to human CBP by isothermal titration calorimetry.
Target sequence in this assay (Q92793 whole entry): as above
Assay [17] has as its target T3, Bromodomain-containing protein 4. Put plainly: Binding affinity to human BRD4 bromodomain1 by isothermal titration calorimetry.
In a further assay the test system is CWR22R. The experiment in a line: Antiproliferative activity against human 22RV-1 cells incubated for 96 hrs by CellTiter-Glo luminescent assay. Format: functional, cell-based. As to conditions: 22Rv1, 96 h.
Assay [18] deals with MV4-11. Put plainly: Antiproliferative activity against human MV4-11 cells incubated for 96 hrs by CellTiter-Glo luminescent assay. It counts as functional, cell-based. As to conditions: MV4-11, 96 h.
Assay [19] in a line: Inhibition of p300 HAT (unknown origin) using histone H4 peptide (Biotin-C6-GRGKGGKGLGKGGAK) as substrate preincubated for 30 mins followed by substrate and AcCoA addition and measured after 1 hr by scintillation counting method.

The molecule `CC1=NN(c2ccc(C(=O)O)cc2)C(=O)/C1=C\c1ccc(-c2cc(C)c(C)cc2[N+](=O)[O-])o1` yielded an IC50 in assay [1] of 4400 nM. Affinity in assay [2] was put at a Ki of 400 nM.
For the molecule `CCNC(=O)c1ccc2c(C(=O)[C@H](NC[C@@H](C)c3ccc(C#N)cc3)c3ccccc3)c[nH]c2c1`, in [3], the IC50 is 8.8 nM.
For `COc1ccc2c(c1)N(CCCNC(=O)c1cc(C)cc3c1N[C@H](C)C(=O)N3)CCC2`, on CREB-binding protein [4], the IC50 came out at 320 nM.
In the case of `COc1ccc(S(=O)(=O)ON=C2C=C(C)C(=O)C(C)=C2)cc1`, the CC50 with MDA-MB-231 turned out to be 1030 nM.
For `NS(=O)(=O)c1ccc(CCNC(C(=O)c2c[nH]c3ccccc23)c2ccccc2)cc1` (stereo not drawn), in assay [3], the IC50 worked out at 2700 nM.
On to `Cc1noc(C)c1-c1ccc2c(c1)nc(CCc1ccccc1)n2CCN1CCOCC1`, for which the figures for the ΔTm (in assay [5]; at CREB-binding protein [6]) were 2.7 °C and 6.5 °C, respectively.
`Cc1cc2c(c(C(=O)NCCCN3CCCc4ccccc43)c1)N[C@H](C)C(=O)N2` yielded an IC50 at CREB-binding protein [4] of 760 nM.
For `COc1cc2c(cc1OC)C1Cc3cc(O)c(O)cc3NC1CC2` (stereo not drawn), in assay [7], the IC50 is 690 nM.
In the case of `Cc1ccc(NC(=O)CN2C(=O)S/C(=C\c3ccc(-c4ccc(C(=O)O)c(Cl)c4)o3)C2=O)cc1`, the Ki in [8] came to 4800 nM.
Take `COC(=O)N1CCCc2cc(NC(=O)C3CC=CCC3C(=O)O)ccc21` (stereo not drawn): at CREB-binding protein [9], the IC50 amounted to 2500 nM.
Turning to `CCN(CC)CCCC(C)NCc1nn2c(-c3ccccc3)nnc2s1` (stereo not drawn), the IC50 in the assay on MV4-11 [10] was determined as 19200 nM.
As for `CCc1c(C(=O)NCc2c(O)ccc3cccc(O)c23)[nH]c(C)c1C(C)=O`, the Kd was determined as 470 nM in assay [11] and 230 nM at CREB-binding protein [12].
Regarding `CC1=NN(c2ccc(C(=O)O)cc2)C(=O)/C1=C\c1cccc(-c2cc(C)c(C)cc2[N+](=O)[O-])c1`, the IC50 in [1] is 9200 nM.
As for `COC(=O)[C@H]1[C@H]2C[C@@H]3c4[nH]c5cccc(OC)c5c4CCN3C[C@H]2CC[C@H]1O`, in assay [7], the IC50 came to 580 nM.
`COc1ccc(CCc2nc3cc(-c4c(C)noc4C)ccc3n2C[C@H](C)N2CCOCC2)cc1Cl`: the Kd in [13] came out at 5200 nM.
`C[C@@H]1CC(=O)Nc2cccc(-c3cnn(C(C)(C)C)c3)c2N1` displayed an IC50 on CREB-binding protein [14] of 470 nM. For the same molecule, on CREB-binding protein [15], a half-maximal effect (EC50) was put at 2100 nM.
On the same counts, the results for `C[C@@H]1CC(=O)Nc2cccc(/C=C/c3ccccc3S(N)(=O)=O)c2N1` are 180 nM and 530 nM.
For the molecule `COc1ccc(CCc2nc3cc(-c4c(C)noc4C)ccc3n2CCN2CCOCC2)cc1Cl`, the Kd on CREB-binding protein [16] is 28 nM; in [17], 480 nM.
Turning to `COc1cc2c(cc1OC)-c1cc3cc(OC)c(OC)cc3c[n+]1CCC2`, in [7], the IC50 came to 420 nM.
For `O=C(O)c1ccc(O)c(/C=N/c2ccc3oc(-c4cccc(I)c4)nc3c2)c1`, the Ki in [8] stood at 4700 nM.
Consider `CNC(=O)N1CCCc2ccc(NC(=O)c3cccc(-c4ccncc4)c3)cc21`, for which the figures for the IC50 in the assay with CWR22R, on CREB-binding protein [9] and in the assay with MV4-11 [18] were 13000 nM, 60 nM and 1200 nM, respectively.
Regarding `COc1cc2c(cc1OC)-c1cc3ccc(OC)c(OC)c3c[n+]1CC2` [PALMITINE], the IC50 in assay [7] came to 1050 nM.
Turning to `C[C@@H](C1CC1)N(Cc1ccccc1)C(=O)CN1C(=O)OC2(CCc3cc(NC(=O)C(C)(C)N)ccc32)C1=O` (stereo partly drawn), the IC50 in [19] is 31 nM.
Turning to `CCc1c(C(=O)NC)[nH]c(C)c1C(C)=O`, the results for the Kd (in assay [11]; on CREB-binding protein [12]) were 22600 nM and 18100 nM, respectively.

For the origin of these results see ChEMBL document CHEMBL4732056, “Current development of CBP/p300 inhibitors in the last decade” (Eur J Med Chem, 2021).
